Reference: US8017637B2, “Inhibitors of cdc phosphatases” (Ipsen Pharma S.A.S., priority 2004, dated 2011)

What was measured:
[1] = system: Mia-Paca2 lines (human pancreatic cancer cells); assay: Anti-proliferative activity, WST1 colorimetric test, Mia-Paca2 cells; type: cell-based; details: MIA PaCa-2, 96 hours treatment, up to 10 μM, read-out: IC50 on the cell proliferation of the Mia-Paca2 lines
Experimental: (§1) ii) Characterization of Anti-Proliferative Activity:
(§2) By way of example, the effect of a treatment by the compounds of the examples described previously on two lines of human Mia-Paca2 and DU145 cells will be studied. The cell lines DU145 (human prostate cancer cells) and Mia-PaCa2 (human pancreatic cancer cells) were acquired from the American Tissue Culture Collection (Rockville, Md., USA). The cells placed in 80 μl of Dulbecco's Modified Eagle medium (Gibco-Brl, Cergy-Pontoise, France) completed with 10% foetal calf serum inactivated by heating (Gibco-Brl, Cergy-Pontoise, France), 50,000 units/l of penicillin and 50 mg/l streptomycin (Gibco-Brl, Cergy-Pontoise, France), and 2 mM of glutamine (Gibco-Brl, Cergy-Pontoise, France) were seeded on a 96-well plate on day 0. The cells were treated on day 1 for 96 hours at increasing concentrations of each of the compounds to be tested up to 10 μM. At the end of the of this period, quantification of the cell proliferation is evaluated by a colorimetric test based on the cleavage of the tetrazolium salt WST1 by the mitochondrial dehydrogenases in the viable cells leading to the formation of formazan (Boehringer Mannheim, Meylan, France). These tests are carried out in duplicate with 8 determinations per concentration tested. For each compound to be tested, the values included in the linear part of the sigmoid were retained for linear regression analysis and used in order to estimate the inhibitory concentration IC50. The products are solubilized in dimethylsulphoxide (DMSO) at to 10^−2M and finally used in culture with 0.1% DMSO.

[2] = molecular target: T1, purified recombinant enzyme Cdc25-C (MBP-Cdc25C) (Homo sapiens, UniProt P30307); assay: Measurement of the phosphatase activity of the purified recombinant enzyme Cdc25C (OMFP dephosphorylation, fluorescence); type: biochemical; details: OMFP 500 μM, 4 hours at 30° C.
T1 construct: made in house
T1 sequence (P30307 1-473): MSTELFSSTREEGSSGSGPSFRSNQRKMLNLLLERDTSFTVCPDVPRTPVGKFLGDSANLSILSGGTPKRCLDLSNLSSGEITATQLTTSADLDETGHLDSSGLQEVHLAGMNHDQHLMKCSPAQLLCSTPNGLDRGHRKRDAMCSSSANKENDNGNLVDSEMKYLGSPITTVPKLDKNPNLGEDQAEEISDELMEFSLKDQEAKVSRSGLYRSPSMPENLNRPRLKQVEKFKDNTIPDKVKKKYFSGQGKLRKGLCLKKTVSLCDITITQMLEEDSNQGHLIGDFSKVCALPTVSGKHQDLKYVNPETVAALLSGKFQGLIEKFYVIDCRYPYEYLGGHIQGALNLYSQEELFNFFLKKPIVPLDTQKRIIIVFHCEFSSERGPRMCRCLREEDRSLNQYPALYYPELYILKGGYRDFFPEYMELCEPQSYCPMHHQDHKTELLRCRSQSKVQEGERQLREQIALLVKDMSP
Experimental: i) Measurement of the Phosphatase Activity of the Purified Recombinant Enzyme Cdc25C
The phosphatase activity of the protein MBP-Cdc25C is evaluated by the dephosphorylation of 3-O-methylfluorescein-phosphate (OMFP) to 3-O-methylfluorescein (OMF) with a determination of the fluorescence at 475 nm of the reaction product. This test makes it possible to identify inhibitors of the recombinant enzyme cdc25. The preparation of the fusion protein MBP-Cdc25C is described in the Patent Application PCT WO 01/44467.
The reaction is carried out in 384-well plate format at a final volume of 50 μl. The protein MBP-Cdc25C (prepared as described above) is preserved in the following elution buffer: 20 mM Tris-HCl pH 7.4; 250 mM NaCl; 1 mM EDTA; 1 mM of dithiothreitol (DTT); 10 mM maltose. It is diluted to a concentration of 60 μM in the following reaction buffer: 50 mM Tris-HCl pH 8.2; 50 mM NaCl; 1 mM DTT; 20% glycerol. Measurement of the background noise is carried out with the buffer without the addition of the enzyme. The products are tested at decreasing concentrations starting from 40 μM. The reaction is initiated by the addition of an OMFP solution at 500 μM final (prepared extemporaneously from a 12.5 mM stock solution in 100% DMSO (Sigma #M2629)). After 4 hours at 30° C. in a single-use 384-well plate, the fluorescence measured at OD 475 nm is read using a Victor^2 plate reader (EGG-Wallac). The determination of the concentration inhibiting the enzyme reaction by 50% is calculated from three independent experiments. Only the values contained in the linear part of the sigmoid are retained for linear regression analysis.

[3] = system: DU-145 lines (human prostate cancer cells); assay: Anti-proliferative activity, WST1 colorimetric test, DU145 cells; type: cell-based; details: 96 hours treatment, up to 10 μM, read-out: IC50 on the cell proliferation of the DU-145 lines
Experimental: as §1, §2

Structure (SMILES) | IC50 [1] [µM] | melting point [°C] | IC50 [2] [µM] | IC50 [3] [µM]
Cc1nc2c(s1)C(=O)C=C(NCCCN(C)CCCNC1=CC(=O)c3sc(C)nc3C1=O)C2=O [Example 1, 5.5′-[(methylimino)bis(propane-3,1-diylimino)]bis(2-methyl-1,3-benzothiazole-4,7-dione)] | ≤ 10 | 94 to 96 | ≤ 1 | ≤ 10
Cc1nc2c(s1)C(=O)C=C(NCCN(C)CCNC1=CC(=O)c3sc(C)nc3C1=O)C2=O [Example 2, 5.5′-[(methylimino)bis(ethane-2,1-diylimino)]bis(2-methyl-1,3-benzothiazole-4,7-dione)] | ≤ 10 | 188 to 190 | ≤ 1 | ≤ 10
Cc1nc2c(s1)C(=O)C=C(NCCOCCNC1=CC(=O)c3sc(C)nc3C1=O)C2=O [Example 3, 5.5′-[oxybis(ethane-2,1-diylimino)]bis(2-methyl-1,3-benzothiazole-4,7-dione)] | ≤ 10 |  | ≤ 1 | ≤ 10
Cc1nc2c(s1)C(=O)C=C(NCCCCCNC1=CC(=O)c3sc(C)nc3C1=O)C2=O [Example 4] | ≤ 10 |  | ≤ 1 | ≤ 10
Cc1nc2c(s1)C(=O)C(NCCCN(C)CCCNC1=CC(=O)c3nc(C)sc3C1=O)=CC2=O [Example 5, 6.6′-[(methylimino)bis(propane-3,1-diylimino)]bis(2-methyl-1,3-benzothiazole-4,7-dione)] | ≤ 10 | 91 to 93 | ≤ 1 | ≤ 10
Cc1nc2c(s1)C(=O)C(NCCN(C)CCNC1=CC(=O)c3nc(C)sc3C1=O)=CC2=O [Example 6, 6.6′-[(methylimino)bis(ethane-2,1-diylimino)]bis(2-methyl-1,3-benzothiazole-4,7-dione)] | ≤ 10 |  | ≤ 5 | ≤ 10
Cc1nc2c(s1)C(=O)C(Br)=C(NCCCN(C)CCCNC1=C(Br)C(=O)c3sc(C)nc3C1=O)C2=O [Example 17, 5.5′-[(methylimino)bis(propane-3,1-diylimino)]bis(6-bromo-2-methyl-1,3-benzothiazole-4,7-dione)] | ≤ 10 |  | ≤ 1 | ≤ 10
CN(CCCN(C)C1=CC(=O)c2nc(-c3cc(F)ccc3F)oc2C1=O)CCCN(C)C1=CC(=O)c2nc(-c3cc(F)ccc3F)oc2C1=O [Example 23, 6.6′-{(methylimino)bis[propane-3,1-diyl(methylimino)]}bis[2-(2,5-difluorophenyl)-1,3-benzoxazole-4,7-dione]] |  |  | ≤ 5 | 
CN(CCCNC1=CC(=O)c2sc(C(=O)N3CCN(C(=O)N4CCOCC4)CC3)nc2C1=O)CCCNC1=CC(=O)c2sc(C(=O)N3CCN(C(=O)N4CCOCC4)CC3)nc2C1=O [Example 27, 5.5′-[(methylimino)bis(propane-3,1-diylimino)]bis(2-{[4-(morpholin-4-ylcarbonyl)piperazin-1-yl]carbonyl}-1,3-benzothiazole-4,7-dione)] | ≤ 10 | 157 to 158 | ≤ 1 | 
CN(CCCNC1=CC(=O)c2sc(C(=O)N3CCN(C(=O)C4CCCO4)CC3)nc2C1=O)CCCNC1=CC(=O)c2sc(C(=O)N3CCN(C(=O)C4CCCO4)CC3)nc2C1=O (stereo not shown) [Example 28, 5.5′-[(methylimino)bis(propane-3,1-diylimino)]bis(2-{[4-(tetrahydrofuran-2-ylcarbonyl)piperazin-1-yl]carbonyl}-1,3-benzothiazole-4,7-dione)] | ≤ 10 | 152 to 153 | ≤ 1 | 
Cc1nc2c(s1)C(=O)C=C(NCCCN(C)CCCNC1=CC(=O)c3nc(C(=O)N4CCCC4)sc3C1=O)C2=O [Example 44, 5-({3-[(3-{[4,7-dioxo-2-(pyrrolidin-1-ylcarbonyl)-4,7-dihydro-1,3-benzothiazol-6-yl]amino}propyl)(methyl)amino]propyl}amino)-2-methyl-1,3-benzothiazole-4,7-dione] | ≤ 10 |  | ≤ 1 | ≤ 10
COc1ccc(CNC(=O)c2nc3c(s2)C(=O)C=C(NCCCN(C)CCCNC2=CC(=O)c4sc(C)nc4C2=O)C3=O)cc1 [Example 45, N-(4-methoxybenzyl)-5-{[3-(methyl{3-[(2-methyl-4,7-dioxo-4,7-dihydro-1,3-benzothiazol-5-yl)amino]propyl}amino)propyl]amino}-4,7-dioxo-4,7-dihydro-1,3-benzothiazole-2-carboxamide] | ≤ 10 |  | ≤ 1 | ≤ 10
COc1ccc2c(c1)CCCN2C(=O)c1nc2c(s1)C(=O)C=C(NCCCN(C)CCCNC1=CC(=O)c3sc(C)nc3C1=O)C2=O [Example 47, 2-[(6-methoxy-3,4-dihydroquinolin-1(2H)-yl)carbonyl]-5-{[3-(methyl{3-[(2-methyl-4,7-dioxo-4,7-dihydro-1,3-benzothiazol-5-yl)amino]propyl}amino)propyl]amino}-1,3-benzothiazole-4,7-dione] |  |  | ≤ 1 | 
COc1ccc(C(=O)N2CCN(C(=O)c3nc4c(s3)C(=O)C=C(NCCCN(C)CCCNC3=CC(=O)c5sc(C)nc5C3=O)C4=O)CC2)cc1 [Example 48, 2-{[4-(4-methoxybenzoyl)piperazin-1-yl]carbonyl}-5-{[3-(methyl{3-[(2-methyl-4,7-dioxo-4,7-dihydro-1,3-benzothiazol-5-yl)amino]propyl}amino)propyl]amino}-1,3-benzothiazole-4,7-dione] | ≤ 10 |  | ≤ 1 | ≤ 10
Cc1nc2c(s1)C(=O)C=C(NCCCN(C)CCCNC1=CC(=O)c3scnc3C1=O)C2=O [Example 50, 5-({3-[{3-[(4,7-dioxo-4,7-dihydro-1,3-benzothiazol-5-yl)amino]propyl}(methyl)amino]propyl}amino)-2-methyl-1,3-benzothiazole-4,7-dione] | ≤ 10 |  | ≤ 1 | ≤ 10
Cc1nc2c(s1)C(=O)C=C(NCCCN(C)CCCNC1=CC(=O)c3nc(-c4cc(F)ccc4F)oc3C1=O)C2=O [Example 51, 2-(2,5-difluorophenyl)-6-{[3-(methyl{3-[(2-methyl-4,7-dioxo-4,7-dihydro-1,3-benzothiazol-5-yl)amino]propyl}amino)propyl]amino}-1,3-benzoxazole-4,7-dione] | ≤ 10 |  | ≤ 1 | 
Cc1nc2c(s1)C(=O)C(NCCCN(C)CCCNC1=CC(=O)c3nc(-c4cc(F)ccc4F)oc3C1=O)=CC2=O [Example 53, 2-(2,5-difluorophenyl)-6-{[3-(methyl{3-[(2-methyl-4,7-dioxo-4,7-dihydro-1,3-benzothiazol-6-yl)amino]propyl}amino)propyl]amino}-1,3-benzoxazole-4,7-dione] | ≤ 10 |  | ≤ 1 | ≤ 10
